For one assay, the system named is KB-V1 cells. The experiment in a line: MTS cytotoxicity test with KB-V1 cells (very high P-glycoprotein). Type of assay: cell-based, human. As to conditions: for IC50: Homo sapiens, KB-V1 cells, MTS; for Ratio VI/KB: IC50 on KB VI cells/IC50 on KB cells; for recognition by P-glycoprotein: inferred from IC50 on KB-V1 compared to parental KB line. An excerpt:
(§1) Human cancer cell lines, unless otherwise noted, are obtained from the American Type Culture Collection (Rockville, Md.). The following drug-sensitive parental cell lines, and their derived drug-resistant counterparts, are obtained from the originators as listed: (a) S1 (parental line from a subclone of human colon carcinoma line LS174T) and derived S1-M1-3.2 (herein called S1-M1) which expresses the MXR drug transporter protein, are provided by Dr. L. Greenberger, Wyeth Research (Rabindran, S. K., He, H., Singh, M., Brown, E., Collins, K. I., Annable, T., and Greenberger, L. M. Reversal of a novel multidrug resistance mechanism in human colon carcinoma cells by fumitremorgin C. Cancer Res., 58:5850-5858,1998); (b) parental HL-60 human promyelocytic leukemia line and derived HL-60/ADR, which expresses the MRP1 drug transporter protein, are provided by Dr. M. Center, University of Kansas (McGrath, T., and Center, M. S. Adriamycin resistance in HL60 cells in the absence of detectable P-glycoprotein. Biochem. Biophys. […] J. Biol. Chem., 261: 7762-7770,1986) via Dr. L. Greenberger, Wyeth Research.
(§2) The assay, which is sold in kit form by Promega (Madison, Wis.; CellTiter 96 AQueous Non-Radioactive Cell Proliferation Assay), is based on the conversion by viable cells, but not by dead cells, of the tetrazolium salt, MTS (3-(4,5-dimethylthiazol-2-yl)-5-(3-carboxymethoxyphenyl)-2-(4-sulphophenyl)-2H-tetrazolium, inner salt), into a water-soluble colored formazan which is detected by spectrophotometry. Compounds are tested at nine concentrations, in order to determine IC50 values. For the test procedure, cells are harvested by trypsinization (or, in the case of non-adherent cells, by simple resuspension), washed, counted and distributed to wells of 96-well flat-bottom microtiter plates at 1000 cells per well in 200 μL of medium. In addition, one row of wells on a separate plate received cells as above (“time 0” plate). All plates are incubated at 37° in humidified 5% CO2 in air for about 24 hr.
(§3) On day 2, compounds for test are diluted and added to wells. Compounds are dissolved in DMSO at 10 mg/mL. For each compound, nine serial 2-fold dilutions are prepared in DMSO. Ten μL of each dilution in DMSO is transferred to 100 μL of medium, mixed well, and then 5 μL of this dilution is transferred in quadruplicate to wells containing cells. […] Plates are returned to the incubator for three days. At the time of drug addition to the experimental plates, the MTS assay is run on the “time 0” plate. This produced the “time 0 MTS value” which is related to the number of viable cells per well at the time of drug addition.
(§4) After three days of culture with test compounds (day 5 overall), the MTS assay is done on all wells of the experimental plates. The absorbance values of the quadruplicate sample wells are averaged and divided by the average of the “time 0” values. […] The nine values for each compound are plotted against concentration, and the concentration that produced a relative color yield half way between the maximum and minimum is taken as the IC50 value.
The KB lines express different amounts of the P-glycoprotein (MDR1) membrane pump which produces resistance to the action of many cytotoxic compounds, including paclitaxel and vincristine. The parental KB line expresses no P-glycoprotein, KB-8-5 expresses moderate levels of the protein, and KB-V1 expresses very high levels.
(In general: Tetrazolium dyes change colour on reduction, which living cells bring about.)

Another assay concerns S1 cells. Description: MTS cytotoxicity test with S1 cells. Type of assay: cell-based. The conditions noted are these: Homo sapiens.
Excerpt: as §1, §2, §3, §4
S1-M1 cells overexpress the MXR transporter which mediates resistance to some chemotherapeutics (Gottesman, M. M., Fojo, T., and Bates, S. E. Miltidrug resistance in cancer: role of ATP-dependent transporters. Nature Rev. Cancer, 2: 48-58, 2002). The IC50 values of representative examples of this invention, as well as reference compounds, on S1-M1 are compared to values on the sensitive parental S1 line.

For another assay, the system named is microtubules. The experiment in a line: Competitive binding test, [3H]paclitaxel. More on the design: species or system bovine. The conditions noted are these: [3H]paclitaxel 2.1 μM, competitor 20 μM (5 μM for unlabeled paclitaxel). The protocol: Medium is RPMI-1640 with L-glutamine, supplemented with 10% heat-inactivated fetal calf serum, 100 units/ml penicillin, and 100 μg/ml streptomycin (Gibco, Grand Island, N.Y.). Microtubule-associated protein (MAP)-rich tubulin, containing about 70% tubulin and 30% MAPs (#ML113), and highly purified tubulin (>99% pure, #TL238), both from bovine brain, are obtained from Cytoskeleton, Inc., Denver, Colo. PEM buffer (80 mM piperazine-N,N′-bis[2-ethanesulfonic acid], pH 6.9, 1 mM ethylene glycol-bis(β-aminoethyl ether)-N,N,N′,N′-tetraacetic acid, 1 mM magnesium chloride) and guanosine 5′-triphosphate (GTP) are also obtained from Cytoskeleton. [3H]paclitaxel, specific activity 14.7 Ci/mmol, is purchased from Moravek Biochemicals (Brea, Calif.). [^3H]vinblastine, specific activity 9.60 Ci/mmol and MicroSpin G-50 columns are obtained from Amersham Biosciences (Piscataway, N.J.). […] Other reagents are obtained from Sigma (St. Louis, Mo.).
The binding of examples of this invention to highly purified tubulin is studied by competitive inhibition methods. […] To study possible competition at the taxane site, on the other hand, polymerized tubulin (microtubules) is used because paclitaxel binds preferentially to microtubules.
For competition with [^3H]paclitaxel, highly purified tubulin is dissolved in PEM buffer containing 0.75 M glutamate and 25 μM dideoxy-GTP; final protein concentration is 0.25 to 0.35 mg/mL (2.5 to 3.5 μM). These conditions foster the rapid formation of short, stable microtubule polymers (Hamel, E., del Campo, A. A., and Lin, C. M. Stability of tubulin polymers formed with dideoxyguanosine nucleotides in the presence and absence of microtubule-associated proteins. J. Biol. Chem., 259: 2501-2508, 1984). This solution is incubated for 30 min at 37° to allow microtubules to form. Then [^3H]paclitaxel (final concentration of 2.1 μM, 1.2 Ci/mmol) and competitor (final concentration of 20 μM, except 5 μM for unlabeled paclitaxel) are added to aliquots of the polymerized tubulin solution and incubation at 37° is continued for another 30 min. […] The reactions are then centrifuged at top speed in an Eppendorf 5415C microfuge for 20 min at room temperature in order to pellet the microtubule protein. Triplicate aliquots of each supernatant are mixed with scintillation fluid and counted in a liquid scintillation spectrometer. From the amount of radioactivity in the supernatants and the measured total starting radioactivity, the amount of [^3H]paclitaxel bound to pelleted microtubule protein is calculated. The ability of each competitor to inhibit radioligand binding to pelleted protein is expressed as a percent of controls without any competitor.

This is an account of results in patent US7507739B2, “6-[(substituted)phenyl]triazolopyrimidines as anticancer agents” (Wyeth, priority 2003, dated 2009).

In the case of `C[C@H](Nc1c(-c2c(F)cc(OCCCN(C)C)cc2F)c(Cl)nc2ncnn12)C(F)(F)F.Cl` [Example 1a, 5-chloro-6-{4-[3-(dimethylamino)propoxy]-2,6-difluorophenyl}-N-[(1S)-2,2,2-trifluoro-1-methylethyl][1,2,4]triazolo[1,5-a]pyrimidin-7-amine hydrogen chloride Salt], in the assay on KB-V1 cells, 103 nM corresponded to half-maximal inhibition (IC50), the “Ratio VI/KB” value is listed as 3.7 and the “recognition by P-glycoprotein” value is reported as “show recognition by P-glycoprotein”. The IC50 with S1 cells is 73 nM. The “[3H]Paclitaxel binding, percent of control without competitor, Mean” value in the assay on microtubules was found to be 108%.
On to `CNCCCOc1cc(F)c(-c2c(Cl)nc3ncnn3c2C2CCCCCC2)c(F)c1.O=C(O)C(F)(F)F` [Example 32, 3-[4-(5-Chloro-7-cycloheptyl[1,2,4]triazolo[1,5-a]pyrimidin-6-yl)-3,5-difluorophenoxy]-N-methylpropan-1-amine trifluoroacetic acid salt], for which, in the assay on KB-V1 cells, the IC50 worked out at 108 nM, the “Ratio VI/KB” value was found to be 9.9 and the “recognition by P-glycoprotein” value was “show recognition by P-glycoprotein”. In the assay on S1 cells, this molecule yielded an IC50 of 11 nM. The “[3H]Paclitaxel binding, percent of control without competitor, Mean” value with microtubules is listed as 93%.
`CC(=O)O[C@H]1C(=O)[C@@]2(C)[C@H]([C@H](OC(=O)c3ccccc3)[C@]3(O)C[C@H](OC(=O)[C@H](O)[C@@H](NC(=O)c4ccccc4)c4ccccc4)C(C)=C1C3(C)C)[C@]1(OC(C)=O)CO[C@@H]1C[C@@H]2O` [Paclitaxel, reference compound]: the IC50 in the assay with KB-V1 cells was over 1000 nM; with S1 cells, 8.1 nM. Also, the “Ratio VI/KB” value with KB-V1 cells and in the assay on KB-V1 cells (listed as paclitaxel) was over 345 each time. The “[3H]Paclitaxel binding, percent of control without competitor, Mean” value in the assay with microtubules is 35%.
With `C[C@H](Nc1c(-c2c(F)cc(OCCCO)cc2F)c(Cl)nc2ncnn12)C(F)(F)F` [Example 20, 3-[4-(5-Chloro-7-{[(1S)-2,2,2-trifluoro-1-methylethyl]amino}[1,2,4]triazolo[1,5-a]pyrimidin-6-yl)-3,5-difluorophenoxy]propan-1-ol], the figures for the half-inhibitory concentration (IC50) with KB-V1 cells and with S1 cells were 73 nM and 85 nM, respectively. In the assay on KB-V1 cells, the “recognition by P-glycoprotein” value is given as “not recognized at all by P-glycoprotein”. Further, the “[3H]Paclitaxel binding, percent of control without competitor, Mean” value with microtubules was determined as 104%.
`CC[C@]1(O)C[C@H]2CN(CCc3c([nH]c4ccccc34)[C@@](C(=O)OC)(c3cc4c(cc3OC)N(C=O)[C@H]3[C@@](O)(C(=O)OC)[C@H](OC(C)=O)[C@]5(CC)C=CCN6CC[C@]43[C@@H]65)C2)C1` [Vincristine, reference compound]: the IC50 is over 1000 nM in the assay with KB-V1 cells and 5.6 nM in the assay with S1 cells. For the same molecule, the “Ratio VI/KB” value in the assay on KB-V1 cells and in the assay with KB-V1 cells (listed as vincristine) was over 156 in each case. In addition, in the assay on microtubules, the “[3H]Paclitaxel binding, percent of control without competitor, Mean” value came to 22%.
Consider `CNCCCOc1cc(F)c(-c2c(Cl)nc3ncnn3c2NCC(F)(F)F)c(F)c1.Cl` [Example 3a, 5-Chloro-6-{2,6-difluoro-4-[3-(methylamino)propoxy]phenyl}-N-(2,2,2-trifluoroethyl)[1,2,4]triazolo[1,5-a]pyrimidin-7-amine hydrogen chloride Salt], for which, in the assay with KB-V1 cells, inhibition was half-maximal at 2150 nM (IC50), the “Ratio VI/KB” value is recorded as 119 and the “recognition by P-glycoprotein” value is recorded as “show recognition by P-glycoprotein”. This molecule returned an IC50 in the assay with S1 cells of 61 nM. Moreover, the “[3H]Paclitaxel binding, percent of control without competitor, Mean” value in the assay on microtubules was 105%.
For the molecule `OCCCOc1cc(F)c(-c2c(Cl)nc3ncnn3c2C2CCCCCC2)c(F)c1` [Example 30, 3-[4-(5-Chloro-7-cycloheptyl[1,2,4]triazolo[1,5-a]pyrimidin-6-yl)-3,5-difluorophenoxy]propan-1-ol], in the assay on KB-V1 cells, the IC50 worked out at 97 nM and the “recognition by P-glycoprotein” value was “not recognized at all by P-glycoprotein”. The molecule further gave an IC50 with S1 cells of 66 nM. In addition, the “[3H]Paclitaxel binding, percent of control without competitor, Mean” value in the assay on microtubules was 91%.
Consider `CNCCCOc1cc(F)c(-c2c(Cl)nc3ncnn3c2N[C@@H](C)C(F)(F)F)c(F)c1.Cl` [Example 2a, 5-Chloro-6-{2,6-difluoro-4-[3-(methylamino)propoxy]phenyl}-N-[(1S)-2,2,2-trifluoro-1-methylethyl][1,2,4]triazolo[1,5-a]pyrimidin-7-amine hydrogen chloride], for which, in the assay on KB-V1 cells, the IC50 amounted to 1120 nM, the “Ratio VI/KB” value was determined as 48 and the “recognition by P-glycoprotein” value is “show recognition by P-glycoprotein”. Further, in the assay on S1 cells, the midpoint of inhibition, the IC50, lay at 70 nM. In the assay with microtubules, the “[3H]Paclitaxel binding, percent of control without competitor, Mean” value is recorded as 104%.
With `C[C@H](Nc1c(-c2c(F)cc(OCCCN(C)C)cc2F)c(Br)nc2ncnn12)C(F)(F)F` [Example 25, 5-Bromo-6-{4-[3-(dimethylamino)propoxy]-2,6-difluorophenyl}-N-[(1S)-2,2,2-trifluoro-1-methylethyl][1,2,4]triazolo[1,5-a]pyrimidin-7-amine], in the assay with KB-V1 cells, half-maximal inhibition (IC50) was put at 165 nM and the “recognition by P-glycoprotein” value was “not recognized at all by P-glycoprotein”. Further, inhibition in the assay with S1 cells was half-maximal at 106 nM (IC50). In addition, the “[3H]Paclitaxel binding, percent of control without competitor, Mean” value in the assay on microtubules came out at 99%.
Take `CN(C)CCCOc1cc(F)c(-c2c(Cl)nc3ncnn3c2NCC(F)(F)F)c(F)c1.Cl` [Example 4a, 5-Chloro-6-{4-[3-(dimethylamino)propoxy]-2,6-difluorophenyl}-N-(2,2,2-trifluoroethyl)[1,2,4]triazolo[1,5-a]pyrimidin-7-amine Hydrogen chloride Salt]: in the assay on KB-V1 cells, the IC50 was 162 nM, the “Ratio VI/KB” value turned out to be 7 and the “recognition by P-glycoprotein” value was “show recognition by P-glycoprotein”. Besides, in the assay on S1 cells, the IC50 was 72 nM. Moreover, in the assay with microtubules, the “[3H]Paclitaxel binding, percent of control without competitor, Mean” value is listed as 104%.

One may read the IC50 as the point on the concentration scale where inhibition reaches its midpoint. Lower therefore signals greater potency.
